According to paper PMC6982053, “GABAA Receptor Ligands Often Interact with Binding Sites in the Transmembrane Domain and in the Extracellular Domain—Can the Promiscuity Code Be Cracked?” (International Journal of Molecular Sciences, 2020):

Target: T1, GABAA receptor α1β1 (β1 subunit) (Rattus norvegicus, UniProt P15431+P62813)
T1 construct: gene Gabrb1; rat α1β1 expressed in Xenopus laevis oocytes; with GABAA receptor α1 subunit
Assay: two-electrode voltage clamp, modulation of GABA EC3-5 current (low efficacy)
Format: cell-based

T1 sequence (P15431 26-474): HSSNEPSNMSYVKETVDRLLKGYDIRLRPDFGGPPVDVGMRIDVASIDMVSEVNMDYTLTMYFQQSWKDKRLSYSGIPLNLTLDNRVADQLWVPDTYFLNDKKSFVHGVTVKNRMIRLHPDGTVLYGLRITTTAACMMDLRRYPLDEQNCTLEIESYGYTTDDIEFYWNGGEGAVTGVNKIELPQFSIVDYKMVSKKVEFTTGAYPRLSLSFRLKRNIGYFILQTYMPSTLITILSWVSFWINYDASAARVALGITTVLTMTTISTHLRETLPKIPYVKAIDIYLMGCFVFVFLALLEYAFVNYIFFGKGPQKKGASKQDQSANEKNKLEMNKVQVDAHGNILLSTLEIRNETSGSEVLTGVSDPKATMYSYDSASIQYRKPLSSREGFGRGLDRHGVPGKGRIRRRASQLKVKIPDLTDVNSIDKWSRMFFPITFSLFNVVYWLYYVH
T1 sequence (P62813 28-455): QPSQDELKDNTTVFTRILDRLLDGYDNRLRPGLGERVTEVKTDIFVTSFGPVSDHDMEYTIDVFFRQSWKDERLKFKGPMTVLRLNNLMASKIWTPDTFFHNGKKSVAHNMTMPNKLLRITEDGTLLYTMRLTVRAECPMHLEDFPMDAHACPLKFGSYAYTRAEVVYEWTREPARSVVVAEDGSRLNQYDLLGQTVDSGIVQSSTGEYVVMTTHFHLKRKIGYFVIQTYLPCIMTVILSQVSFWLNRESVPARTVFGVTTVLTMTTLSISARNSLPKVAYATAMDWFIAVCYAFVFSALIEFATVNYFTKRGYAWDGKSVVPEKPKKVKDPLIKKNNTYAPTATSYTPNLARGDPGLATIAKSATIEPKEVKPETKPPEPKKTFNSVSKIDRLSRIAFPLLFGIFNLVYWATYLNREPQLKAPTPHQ

EC50: 7.65 µM
SMILES: O=C(O)c1[nH]c2ccc(Cl)cc2c1/N=N/c1ccc(Br)cc1 [MTI163, (E)-3-((4-bromophenyl)diazenyl)-5-chloro-1H-indole-2-carboxylic Acid]
